Test results as given in patent US20240409557A1, “5,6-FUSED AND 6,6-FUSED BICYCLIC ALCOHOLS AND ETHERS AND COMPOSITIONS FOR USE AS 15-PROSTAGLANDIN DEHYDROGENASE MODULATORS” (AMGEN INC., priority 2023, published 2024).

biological target: T1, human recombinant 15-PGDH (Homo sapiens, UniProt P15428); assay: Recombinant 15-PGDH enzymatic inhibition assay (PGDH-Lumi, NADH signal); format: biochemical; settings: recombinant 15-PGDH; 15 min pre-incubation, 60 min reaction with PGE2 and NAD+, NADH signal
T1 sequence (P15428 1-266): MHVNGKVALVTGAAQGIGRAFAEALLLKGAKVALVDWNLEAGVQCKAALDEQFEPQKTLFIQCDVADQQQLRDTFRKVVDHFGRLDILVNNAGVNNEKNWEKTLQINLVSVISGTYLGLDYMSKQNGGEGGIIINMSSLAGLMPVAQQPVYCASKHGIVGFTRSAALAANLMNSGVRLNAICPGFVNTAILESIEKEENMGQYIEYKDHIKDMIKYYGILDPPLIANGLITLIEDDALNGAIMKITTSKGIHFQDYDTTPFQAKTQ
Protocol: These assays measured 15-PGDH enzymatic activity by quantifying the amount of NADH produced during a 60-minute reaction initiated by the addition of PGE2 and NAD+. Under the conditions of these experiments, the increase of NADH signal upon oxidation of PGE2 and reduction of NAD+ was linearly proportional to 15-PGDH enzymatic activity. The recombinant human, mouse, rat and dog 15-PGDH enzymatic assays were performed in a 25 μL volume of reaction buffer containing 50 mM Tris, pH 7.5, 0.01% Tween-20 and […] DTT in a 384-well microtiter plate. In concentration-response experiments with tested compounds, 22 concentrations from 2-fold serial dilutions in DMSO were pre-incubated with 15-PGDH for 15 minutes at room temperature. Then, PGE2 and β-NAD+ were added to initiate the 15-PGDH reaction. After 60 minutes at room temperature, the reaction was quenched and NADH signal was measured using a microtiter plate reader.
The following data (Table 27-1) provides the IC50 in μM of each compound for inhibiting enzymatic activity of the recombinant 15-PGDH in the assay described above.

SMILES | IC50
CC(C)n1ncc2cc(-c3ccc4cc([C@@H](O)C5CC(F)(F)C5)sc4n3)cnc21 (single isomer, unassigned) [Compound B65S] | 0.0231 µM
C[C@H](O)c1cc2c(C3CC3)cc(-c3cnc4nn(C)cc4c3)nc2s1 (single isomer, unassigned) [Compound B11S] | 0.0981 µM
Cn1cc2cc(-c3ccc4cc([C@@H](CO)C5CC(F)(F)C5)sc4n3)cnc2n1 (single isomer, unassigned) [Compound B80R] | 0.0467 µM
O[C@]1(c2cc3cnc(-c4cnc5nncn5c4)nc3s2)C[C@H](C(F)(F)F)C1 [Compound C129C, cis-1-(2-([1,2,4]triazolo[4,3-a]pyrimidin-6-yl)thieno[2,3-d]pyrimidin-6-yl)-3-(trifluoromethyl)cyclobutanol] | 0.0035 µM
Cc1n[nH]c2ccc(-c3ccc4cc([C@@H](O)C5CCOCC5)sc4n3)cc12 (single isomer, unassigned) [Compound B40S] | 3.4 µM
Cn1cnc(-c2ccc3cc([C@@H](O)C4CC(F)(F)C4)sc3n2)cc1=O (single isomer, unassigned) [Compound B49S] | 0.0093 µM

Second part, the compound after the results:

IC50 | SMILES
0.0129 µM | Cn1cc2cc(-c3ccc4cc(C5(O)COC5)sc4n3)cnc2n1 [Compound C18, 3-(6-(2-methyl-2H-pyrazolo[3,4-b]pyridin-5-yl)thieno[2,3-b]pyridin-2-yl)-3-oxetanol]
2.16 µM | CN(C)c1c(CO)c(-c2cnc3nn(C)cc3c2)nc2sc(CO)cc12 [Compound A2, (4-(dimethylamino)-6-(2-methyl-2H-pyrazolo[3,4-b]pyridin-5-yl)thieno[2,3-b]pyridine-2,5-diyl)dimethanol]
0.23 µM | Cn1cc2cc(-c3cc(-c4ccnn4C)c4cc(C(O)(C5CCC5)C(F)(F)F)sc4n3)cnc2n1 (centres unmarked) [Compound C24, 1-cyclobutyl-2,2,2-trifluoro-1-(6-(2-methyl-2H-pyrazolo[3,4-b]pyridin-5-yl)-4-(1-methyl-1H-pyrazol-5-yl)thieno[2,3-b]pyridin-2-yl)ethanol]
> 100 µM | COCc1cc2c(C3(COC)CCC3)cc(-c3cnc4nn(C)cc4c3)nc2s1 [Compound A4, 5-(2-(methoxymethyl)-4-(1-(methoxymethyl)cyclobutyl)thieno[2,3-b]pyridin-6-yl)-2-methyl-2H-pyrazolo[3,4-b]pyridine]
0.139 µM | CC(O)c1cc2c(-c3cnc4nn(C)cc4c3)cc(-c3cnc4nn(C)cc4c3)nc2s1 (centres unmarked) [Compound B10, 1-(4,6-bis(2-methyl-2H-pyrazolo[3,4-b]pyridin-5-yl)thieno[2,3-b]pyridin-2-yl)ethanol]
0.0397 µM | COC(c1cc2c(-c3ccnn3C)cc(-c3cnc4nn(C)cc4c3)nc2s1)C1CCC1 (centres unmarked) [Compound B4]
0.0578 µM | CC(O)c1cc2c(-c3cnc4nn(C)cc4c3)cc(C3CC3)nc2s1 (centres unmarked) [Compound B12, 1-(6-cyclopropyl-4-(2-methyl-2H-pyrazolo[3,4-b]pyridin-5-yl)thieno[2,3-b]pyridin-2-yl)ethanol]
0.0128 µM | CN1CC(C(O)c2cc3ccc(-c4cnc5nn(C)cc5c4)nc3s2)C1 (centres unmarked) [Compound B42, (1-methyl-3-azetidinyl)(6-(2-methyl-2H-pyrazolo[3,4-b]pyridin-5-yl)thieno[2,3-b]pyridin-2-yl)methanol]
0.027 µM | CN1CCC(C(O)c2cc3ccc(-c4cnc5nn(C)cc5c4)nc3s2)CC1 (centres unmarked) [Compound B33, (1-methyl-4-piperidinyl)(6-(2-methyl-2H-pyrazolo[3,4-b]pyridin-5-yl)thieno[2,3-b]pyridin-2-yl)methanol]
0.086 µM | Cn1cc2cc(-c3ccc4cc(C5(O)CCOC5)sc4n3)cnc2n1 (centres unmarked) [Compound C20, 3-(6-(2-methyl-2H-pyrazolo[3,4-b]pyridin-5-yl)thieno[2,3-b]pyridin-2-yl)tetrahydro-3-furanol]
0.0207 µM | Cn1ncc2cc(-c3ccc4cc(C(O)C5CCOCC5)sc4n3)ccc21 (centres unmarked) [Compound B34, (6-(1-methyl-1H-indazol-5-yl)thieno[2,3-b]pyridin-2-yl)(tetrahydro-2H-pyran-4-yl)methanol]
